For 8 compounds, Sweetness potency results are on record in ChEMBL document CHEMBL1122825, “Peptide sweeteners. 8. Synthesis and structure-taste relationship studies of L-aspartyl-D-alanyl tripeptides” (J Med Chem, 1985).

Where a SMILES comes first, the peptide text is derived from it. [ ]: non-standard residue; d: D form. Ac6c = NC1(C(=O)O)CCCCC1; Ac5c = NC1(C(=O)O)CCCC1; Ac4c = NC1(C(=O)O)CCC1; Deg = CCC(N)(CC)C(=O)O; Ac3c = NC1(C(=O)O)CC1; Aib = CC(C)(N)C(=O)O

The nature of one assay: Compound is evaluated for sweet potency; +=Sweet.
In the case of `COC(=O)C1(NC(=O)[C@H](C)NC(=O)[C@@H](N)CC(=O)O)CC1` (H-Asp-Ala-[Ac3c]-OMe), the Sweetness potency result was “Sweet”. On the same count and under the same terms, as for `COC(=O)C1(NC(=O)[C@H](C)NC(=O)[C@@H](N)CC(=O)O)CCC1` (H-Asp-Ala-[Ac4c]-OMe), the entry is “Sweet”; as for `COC(=O)C1(NC(=O)[C@H](C)NC(=O)[C@@H](N)CC(=O)O)CCCC1` (H-Asp-Ala-[Ac5c]-OMe), “Sweet”; as for `COC(=O)C1(NC(=O)[C@H](C)NC(=O)[C@@H](N)CC(=O)O)CCCCC1` (H-Asp-Ala-[Ac6c]-OMe), “Sweet”. Consider `COC(=O)C(C)(C)NC(=O)[C@H](C)NC(=O)[C@@H](N)CC(=O)O` (H-Asp-Ala-[Aib]-OMe), for which the Sweetness potency entry was “Sweet”. On the same count and under the same terms, with `CCC(CC)(NC(=O)[C@H](C)NC(=O)[C@@H](N)CC(=O)O)C(=O)OC` (H-Asp-Ala-[Deg]-OMe) the entry was “Sweet”.

Another assay can be described thus: Compound is evaluated for sweet potency; -=Bitter.
On to `COC(=O)C1(NC(=O)[C@H](C)NC(=O)[C@@H](N)CC(=O)O)CCCCCC1`, for which the Sweetness potency result is on record as “Bitter”. Same read-out and setting: with `COC(=O)C1(NC(=O)[C@H](C)NC(=O)[C@@H](N)CC(=O)O)CCCCCCC1` the entry was “Bitter”.
